Reference: US9103830B2, “Enzyme sensors, methods for preparing and using such sensors, and methods of detecting protease activity” (Georgia State University Research Foundation, Inc., priority 2006, dated 2015)
“Also recorded” adds a separate entry of the source.

Assays:
[1] = molecular target: T1, trypsin (Bos taurus, UniProt P00760); assay: Steady-state kinetics of trypsin digestion of EGFP-based trypsin sensors and BAPNA (absorbance at 490 nm, Michaelis-Menten fit); assay type: biochemical, bovine; settings: Table 2; 10 mM Tris, 20 mM CaCl2, pH 7.4
T1 construct: Active trypsin is produced only after trypsinogen reaches the small intestine through the common bile duct and is cleaved by enterokinase; purchased Sigma, St. Louis; host or cells: bovine pancreas
T1 sequence (P00760 24-246): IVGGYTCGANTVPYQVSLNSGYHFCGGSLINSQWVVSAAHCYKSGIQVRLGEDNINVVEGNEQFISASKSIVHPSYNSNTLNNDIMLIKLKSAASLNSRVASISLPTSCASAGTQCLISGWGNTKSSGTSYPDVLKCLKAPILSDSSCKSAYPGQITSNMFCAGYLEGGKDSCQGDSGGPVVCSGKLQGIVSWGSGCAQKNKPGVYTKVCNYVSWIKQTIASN
Experimental: Initial rates of trypsin digestion reaction for EGFP-T/C1 with various concentrations were measured using a time-course model to monitor the change of absorbance at 490 nm for 10 min on a UV-1700 spectrometer (Shimadzu, Japan), where the initial rate was equivalent to the resulting slope of absorbance increase.
In order to investigate the kinetic change and to determine the steady-state kinetic parameters kcat, Km, and kcat/Km for hydrolysis of EGFP-based trypsin sensors upon the action of trypsin, initial rates were measured at various EGFP-based trypsin sensor concentrations. The change of absorbance was monitored at 490 nm for 10 min using UV-1700 spectrometer (Shimadzu, Japan) in time-course model and the slope of absorbance increase was determined as the initial rate data. The data were fitted to the Michaelis-Menten equation by nonlinear regression using KaleidaGraph 3.5 software (Synergy software) to obtain the Michaelis constants (Km), turnover numbers (kcat) and specificity constants (kcat/Km).
In order to examine buffer pH effect on trypsin cleavage, kinetic parameters of our designed trypsin sensors were evaluated during trypsin digestion in PIPES buffer (20 mM PIPES, 20 mM CaCl2, pH 6.7) and Tris buffer (10 mM Tris, 20 mM CaCl2, pH 7.4 and pH 8.0), respectively. […]

[2] = molecular target: T1, trypsin; assay: Inhibition by leupeptin of trypsin digestion of EGFP-T/C1; assay type: biochemical, bovine
Experimental: In order to examine inhibition effect of leupeptin (Sigma, St. Louis), a trypsin inhibitor, leupeptin at various concentrations (0, 12.5, 25, 50 and 100 nM) was mixed with EGFP-T/C1 and subsequently digested by trypsin at a final concentration of 0.005 μM. The kinetic studies of EGFP-T/C1 with various concentrations were performed at each inhibitor concentration level and the absorbance change at 490 nm was mintored using a time course model. The double reciprocal of initial rates and trypsin sensor concentrations was performed to obtain the plot for confirming inhibition type and calculation of Ki value.
In order to ensure that our developed sensor is able to directly monitor the catalytic step of the enzymatic reaction, we then examined the inhibition effect of leupeptin on trypsin during the digestion of EGFP-T/C1 with various leupeptin concentrations. The rate of the signal change due to cleavage decreases with increasing leupeptin concentrations (FIG. 6A).

[3] = test system: caspase-3 activation in Hela cells; assay: Fluorescence imaging of Hela cells transfected with caspase-3 sensor, STS induction; assay type: cell-based, human
Experimental: (§1) Hela cells were grown on glass coverslips (0.5-1.0×10^6 cells/dish) in 35 mm culture dishes in Dulbecco's Modified Eagles Medium (DMEM) (Sigma Chemical Co., St. Louis, Mo.) with 44 mM NaHCO3, pH 7.2, and supplemented with 10% (v/v) fetal calf serum (FCS), 100 U/ml penicillin and 0.1 mg/ml streptomycin (Pen/Strep) at 37° C. with 5% CO2 in a humidified incubation chamber. After the cells were seeded and grown overnight, the EGFP-based caspase-3 sensor plasmid was transfected into Hela cells with lipofectamine-2000 (Invitrogen Life Technologies) and serum-free Opti-MEM (Gibco Invitrogen Corporation) according to the manufacturer's instructions. […] The cells were then grown 24 to 48 hours in a humidified chamber with 5% CO2 at 30° C. before fluorescence microscope imaging. […]
Hela cells with transfected EGFP-based caspase-3 sensor were imaged following its expression for 24 or 48 hours. […] Fluorescence imaging of Hela cells with EGFP-wt transfection was used as the control.
The ratiometric change between fluorescence emission for excitation at 398 nm and 488 nm was used to detect caspase-3 activation and inhibition at different time intervals in living cells. Fluorescence for both excitation wavelengths is expected to decrease at 398 nm and produce a corresponding increase at 488 nm during the course of the reaction. The fluorescence intensity of the cells was normalized with equation 2: […]

[4] = molecular target: T1, trypsin; assay: Cleavage status after trypsin digestion (SDS-PAGE, MALDI-MS); assay type: biochemical, bovine; settings: up to 40 hours
Experimental: To examine the cleavage status of the protease sensors (EGFP-T/C1, and EGFP-wt) at different time points, 20 μl of reaction mixtures of 15 μM EGFP variants during trypsin digestion were removed and immediately added SDS sample buffer and boiled to stop the reaction for monitoring by SDS-PAGE at different digestion time intervals (0 min, 5 min, 10 min, 30 min, 60 min, 2 h, 6 h, and 24 h). The samples were loaded on 15% SDS-PAGE to examine the cleavage status of three EGFP variants.
Similarly, after digestion with trypsin, the cleavage status was confirmed using matrix assisted laser desorption/ionization-mass spectrometry (MALDI-MS).
In order to verify the cleavage status of EGFP-based trypsin sensors, the samples during trypsin digestion at various digestion time intervals were examined with 15% SDS-PAGE and MALDI mass spectrometry.

[5] = test system: trypsin activation in MIA PaCa-2 cells; assay: Fluorescence imaging of MIA PaCa-2 cells transfected with trypsin sensor, caerulein activation; assay type: cell-based; settings: zymogen activation by 10 nM caerulein
Experimental: as §1, with “MIA PaCa-2” for “Hela”, “bovine” for “calf”, “(FBS),” for “(FCS),”, “EGFP-T/C1” for “the EGFP-based caspase-3 sensor plasmid”
MIA PaCa-2 cells with transfected EGFP-T/C1 were imaged following trypsin sensor expression for 24 or 48 hours. […] The ratiometric change between fluorescence emission for excitation at 398 nm and 488 nm was used to detect trypsin activity at different time intervals in the living cells. Fluorescence for both excitation wavelengths is expected to decrease at 398 nm and produce a corresponding increase at 488 nm during the course of reaction. The fluorescence intensity of the cells was normalized with equation 2: […]
The fluorescence ratiometric change (R) is expressed by equation 3: […]

[6] = test system: caspase-3 activation in MIA PaCa-2 cells; assay: Fluorescence imaging of MIA PaCa-2 cells transfected with caspase-3 sensor, STS induction; assay type: cell-based
Description: After induction, there was obvious increase in fluorescence of EGFP-EF172cas2 at 398 nm excitation and significant decrease in fluorescence at 488 nm excitation in real time, which results in an increased fluorescence ratio change between 398 and 488 nm, and a corresponding increase in sensitivity for determining the caspase-3 activity in living cells, and an increase in the dynamic range up to 4 for the caspase-3 activity determination. Although there was a slight increase and then decrease in fluorescence of EGFP-wt at both wavelengths after STS induction, the relative fluorescence ratio change was negligible. A possible reason for this would be a change in the cell shape to which increases the fluorescence slightly during the apoptosis. […] Apoptosis is observed in MIA PaCa-2 is a little earlier and stronger than in HeLa cells. There is a huge fluorescence change with excitation at 398 nm in MIA PaCa-2 cells transfected with EGFP-EF172cas2. The cause of this is reasoned to be due to intrinsic high-level caspase-3 activity in MIA PaCa-2 cells and its activity is enhanced by STS induction.

With `Cl.N=C(N)NCCCC(NC(=O)c1ccccc1)C(=O)Nc1ccc([N+](=O)[O-])cc1` (racemic) [BAPNA, benzoyl-DL-arginine-4-nitroanilide hydrochloride] the kcat [1] was 1.33 ± 0.17 s⁻¹.

`CC(=O)N[C@@H](CC(C)C)C(=O)N[C@@H](CC(C)C)C(=O)N[C@H](C=O)CCCNC(=N)N` [leupeptin] was tested, and the inhibition type ([2]; double reciprocal plot, Enzfitter fit) was “competitive inhibition” and the Ki ([2]; substrate EGFP-T/C1, 0.005 μM trypsin, 10 mM Tris, 20 mM CaCl2, pH 7.4) was 31.1 ± 2.3 nM.

With DEVD-CHO the “ratio (R398/488) of fluorescence of caspase-3 sensor cells incubated with caspase-3 inhibitor” value ([3]; Hela cells transfected with EGFP-cas3-1e, inhibitor overnight, then 1 μM STS) was “no change”.

In the case of “EGFP-wt: enhanced green fluorescent protein, Sequence ID. No. 119; used as the control”, the “cleavage status upon incubation with trypsin” value [4] is reported as “remains intact”, the “ratiometric emission change (510 nm emission, excitation 488/398 nm)” value [5] is reported as “remained unchanged” and the “ratio (R398/488) of fluorescence signal change” value ([3]; Hela cells, 1 μM STS induction, emission 510 nm) is reported as “no apparent ratiometric change; also recorded: negligible”. The fluorescence ratio change [6] was “maintains a gradient increase”.
